The text below walks through data of patent US10604512B2, “3-(1H-indol-2-yl)-1H-indazoles and therapeutic uses thereof” (Samumed, LLC, priority 2015, dated 2020).

What all share (type): cell-based
Assay [1] deals with Wnt activity (Sp5-Luc reporter, TCF/LEF binding sites) in SW480 colon carcinoma cells. The assay can be described thus: Screening assay for Wnt activity: Sp5-Luc reporter gene assay in stably transduced SW480 colon carcinoma cells. The settings on record: Homo sapiens, overnight incubation, 10-point curve from 10 μM. The source says:
The screening assay for Wnt activity is described as follows. Reporter cell lines can be generated by stably transducing cancer cell lines (e.g., colon cancer) or primary cells (e.g., IEC-6 intestinal cells) with a lentiviral construct that includes a Wnt-responsive promoter driving expression of the firefly luciferase gene.
SW480 colon carcinoma cells were transduced with a lentiviral vector expressing luciferase with a human Sp5 promoter consisting of a sequence of eight TCF/LEF binding sites. SW480 cells stably expressing the Sp5-Luc reporter gene and a hygromycin resistance gene were selected by treatment with 150 μg/mL of hygromycin for 7 days. These stably transduced SW480 cells were expanded in cell culture and used for all further screening activities. Each compound was dissolved in DMSO as a 10 mM stock and used to prepare compound source plates. Serial dilution (1:3, 10-point dose-response curves starting from 10 μM) and compound transfer was performed using the ECHO 550 (Labcyte, Sunnyvale, Calif.) into 384-well white solid bottom assay plates (Greiner Bio-One) with appropriate DMSO backfill for a final DMSO concentration of 0.1%. For Sp5-Luc reporter gene assays, the cells were plated at 4,000 cells/well in 384-well plates with medium containing 1% fetal bovine serum and incubated overnight at 37° C. and 5% CO2. Following incubation, 20 μl of BrightGlo luminescence reagent (Promega) was added to each well of the 384-well assay plates. The plates were placed on an orbital shaker for 2 min and then luminescence was quantified using the Envision (Perkin Elmer) plate reader. Readings were normalized to DMSO only treated cells, and normalized activities were utilized for EC50 calculations using the dose-response log (inhibitor) vs. response variable slope (four parameters) nonlinear regression feature available in GraphPad Prism 5.0 (or Dotmatics). For EC50 of >10 μM, the percent inhibition at 10 μM is provided.

A further assay concerns IL-6. The assay can be described thus: Inhibition of IL-6 in LPS-stimulated THP-1 human monocyte cells (HTRF). The following applies: IL-6 inhibition, LPS-stimulated THP-1 cells, HTRF. The procedure:
Human monocyte cell line (THP-1 cells; Catalog # TIB-202, ATCC, Manassas, Va.) were cultured in Roswell Park Memorial Institute (RPMI) 1640 Medium (Catalog #21870-100, Buffalo, N.Y.) with 1% L-glutamine, 1% HEPES, 1% Sodium Pyruvate, 2% Sodium Bicarbonate supplemented with 100 units/mL penicillin, 50 μg/mL streptomycin, 2-mercaptoethanol (0.05 mM) [basal medium] and 10% fetal bovine serum (Catalog #16140089, Life Technologies, Carlsbad, Calif.) at 37° C. and 5% CO2.
THP-1 cells were cultured in basal media with 1% FBS for 24 hours before the start of the assay. Each compound was dissolved in DMSO as a 10 mM stock and used to prepare compound source plates. Serial dilution (1:3, 10-point dose-response curves starting from 10 μM) and compound transfer was performed using the ECHO 550 (Labcyte, Sunnyvale, Calif.) into 384-well white low volume assay plates (Greiner Bio-One) with appropriate DMSO backfill for a final DMSO concentration of 0.1%. THP-1 cells were plated at 5000 cells/well in the 384-well plates and incubated at 37° C. for 2 h. 500 ng/mL of LPS was added after 2 hours and cells were incubated for another 22 hours at 37° C. Plates were spun in a centrifuge for 1 minute at […] and a mixture of anti-IL6 XL665, and anti-IL6 Cryptate diluted in reconstitution buffer (Cisbio Inc.) was added to each well. Following incubation for 3 hrs at room temperature, Homogeneous Time-Resolved Fluorescence (HTRF) was measured using the Envision (Perkin Elmer) at 665 nm and […]. The ratio of fluorescence at 665 nm to 620 nm was used as a readout for IL6 quantification. All samples were processed in duplicate. Readings were normalized to DMSO treated cells and normalized activities were utilized for EC50 calculations using the dose-response log (inhibitor) vs. response variable slope (four parameters) nonlinear regression feature available in GraphPad Prism 5.0 (or Dotmatics). For EC50 of >10 μM, the percent inhibition at 10 μM is provided.

Assay [2] relates to Primary human fibroblasts derived from IPF patients (LL29 cells) treated with TGF-β1. The assay can be described thus: Inhibition of the fibrotic process: αSMA staining in TGF-β1-treated primary human fibroblasts from IPF patients (LL29 cells). The settings on record: Fibroblast, 96 h, % αSMA-positive LL29 cells, TGF-β1 20 ng/mL, 4 days. From the text: Representative compounds were screened using primary human fibroblasts (derived from IPF patients) treated with TGF-β1 to determine their ability to inhibit the fibrotic process.
Primary human fibroblasts derived from IPF patients (LL29 cells) [^1Xiaoqiu Liu, et. al., “Fibrotic Lung Fibroblasts Show Blunted Inhibition by cAMP Due to Deficient cAMP Response Element-Binding Protein Phosphorylation”, Journal of Pharmacology and Experimental Therapeutics (2005), 315(2), 678-687; ^2Watts, K. L., et. al., “RhoA signaling modulates cyclin D1 expression in human lung fibroblasts; implications for idiopathic pulmonary fibrosis”, Respiratory Research (2006), 7(1), 88] were obtained from American Type Culture Collection (ATCC) and expanded in F12 medium supplemented with 15% Fetal Bovine Serum and Penicillin/Streptomycin.
Each compound was dissolved in DMSO as a 10 mM stock and used to prepare compound source plates. Serial dilution (1:2, 11-point dose-response curves from 10 μM to […]) and compound transfer was performed using the ECHO 550 (Labcyte, Sunnyvale, Calif.) into 384-well clear bottom assay plates (Greiner Bio-One) with appropriate DMSO backfill for a final DMSO concentration of 0.1%. LL29 cells are plated at 1,500 cells/well in 80 μL/well F12 medium supplemented with 1% Fetal Bovine Serum. One hour after addition of the cells, TGF-β1 (Peprotech; 20 ng/mL) was added to the plates to induce fibrosis (ref 1 and 2 above). Wells treated with TGF-β1 and containing DMSO were used as controls. Cells were incubated at 37° C. and 5% CO2 for 4 days. Following incubation for 4 days, SYTOX green nucleic acid stain (Life Technologies [Thermo Fisher Scientific]) was added to the wells at a final concentration of 1 μM and incubated at room temperature for 30 min. Cells were then fixed using 4% formaldehyde (Electron Microscopy Sciences), washed 3 times with PBS followed by blocking and permeabilization using 3% Bovine Serum Albumin (BSA; Sigma) and 0.3% Triton X-100 (Sigma) in PBS. Cells were then stained with antibody specific to α-smooth muscle actin (αSMA; Abcam) (ref 1 and 2 above) in 3% Bovine Serum Albumin (BSA; Sigma) and 0.3% Triton X-100 (Sigma) in PBS, and incubated overnight at 4° C. Cells were then washed 3 times with PBS, followed by incubation with Alexa Flor-647 conjugated secondary antibody (Life Technologies [Thermo Fisher Scientific]) and DAPI at room temperature for 1 hour. Cells were then washed 3 times with PBS and plates were sealed for imaging. αSMA staining was imaged by excitation at 630 nm and emission at 665 nm and quantified using the Compartmental Analysis program on the CellInsight CX5 (Thermo Scientific). Dead or apoptotic cells were excluded from analysis based on positive SYTOX green staining. % of total cells positive for αSMA were counted in each well and normalized to the average of 11 wells treated with TGF-β1 on the same plate using Dotmatics' Studies Software. The normalized averages (fold change over untreated) of 3 replicate wells for each compound concentration were used to create dose-responses curves and EC50 values were calculated using non-linear regression curve fit in the Dotmatics' Studies Software. For EC50 of >10 μM, the percent inhibition at 10 μM is provided.

In another assay the test system is SW480 colon cancer cells. The assay is described as follows: Cell viability assay (CellTiter-Blue) in SW480 colon cancer cells. The settings on record: Homo sapiens, 96 h, four days, CellTiter-Blue. The procedure: Representative compounds were screened using the following assay procedure to assess the effect on cell viability as described below.
Each compound was dissolved in DMSO as a 10 mM stock and used to prepare compound source plates. Serial dilution (1:3, 8-point dose-response curves from 10 μM to 0.0045 μM) and compound transfer was performed using the ECHO 550 (Labcyte, Sunnyvale, Calif.) into 96-well clear bottom, black-walled plates (Corning-Costar).
Approximately 2×10^3 SW480 colon cancer cells were seeded into each well and allowed to incubate in the presence or absence of compound for four days at 37° C./5% CO2. Eight replicates of DMSO-treated cells served as controls and cells treated with compound were performed in duplicate.
After incubation, 20 μL of CellTiter-Blue (Promega) was added to each well allowed to incubate for approximately 3 hours. This reagent was a buffered solution which contains resazurin, metabolically active cells were able to reduce rezarurin (blue) into resorufin (pink) which was highly fluorescent. This measured fluorescence was used as a readout for cell viability.
After incubation, the plates were read at Ex 560 nm Em 590 nm (Cytation 3, BioTek). Dose-response curves were generated and EC50 concentration values were calculated using non-linear regression curve fit in the GraphPad Prism (San Diego, Calif.) or Dotmatics' Studies Software (Bishops Stortford, UK). For EC50 of >10 μM, the percent inhibition at 10 μM is provided.

Regarding `CN(C)CCNc1cc(F)cc(-c2cccc3[nH]c(-c4n[nH]c5ccc(-c6cncc(NC(=O)Cc7ccccc7)c6)cc45)cc23)c1` [Compound 458, N-(5-(3-(4-(3-((2-(Dimethylamino)ethyl)amino)-5-fluorophenyl)-1H-indol-2-yl)-1H-indazol-5-yl)pyridin-3-yl)-2-phenylacetamide], the EC50 (in general, the concentration needed to bring the measured effect to its halfway point) worked out at 422 nM in assay [1], 354 nM in the assay on IL-6, 1010 nM in assay [2] and 767 nM in the assay with SW480 colon cancer cells.
For `CN(C)CCNc1cc(F)cc(-c2cccc3[nH]c(-c4n[nH]c5ccc(-c6cnn(C)c6)cc45)cc23)c1` [Compound 808, N^1-(3-Fluoro-5-(2-(5-(1-methyl-1H-pyrazol-4-yl)-1H-indazol-3-yl)-1H-indol-4-yl)phenyl)-N^2,N^2-dimethylethane-1,2-diamine], the EC50 in assay [1] worked out at 69 nM; with IL-6, 6 nM; in assay [2] it was 88 nM; with SW480 colon cancer cells, 89 nM.
With `Cc1ccncc1-c1ccc2[nH]nc(-c3cc4c(N5CCCCC5)cccc4[nH]3)c2c1` [Compound 173, 5-(4-Methylpyridin-3-yl)-3-(4-(piperidin-1-yl)-1H-indol-2-yl)-1H-indazole], the EC50 stood at 865 nM in assay [1], 4310 nM in the assay with IL-6, 1780 nM in assay [2] and 1980 nM in the assay with SW480 colon cancer cells.
As to `CCCCC(=O)Nc1cncc(-c2ccc3[nH]nc(-c4cc5c(-c6ccccc6F)cccc5[nH]4)c3c2)c1` [Compound 75, N-(5-(3-(4-(2-Fluorophenyl)-1H-indol-2-yl)-1H-indazol-5-yl)pyridin-3-yl) pentanamide], the EC50 worked out at 1960 nM in assay [1], 1000 nM in the assay on IL-6, 1980 nM in assay [2] and 4800 nM in the assay with SW480 colon cancer cells.
With `FC1(F)CCN(Cc2cncc(-c3ccc4[nH]nc(-c5cc6c(-c7cccs7)cccc6[nH]5)c4c3)c2)C1` [Compound 362, 5-(5-((3,3-Difluoropyrrolidin-1-yl)methyl)pyridin-3-yl)-3-(4-(thiophen-2-yl)-1H-indol-2-yl)-1H-indazole], the EC50 is 474 nM in assay [1], 370 nM in the assay with IL-6, 619 nM in assay [2] and 3090 nM in the assay with SW480 colon cancer cells.
On to `O=C(CC1CCCCC1)Nc1cncc(-c2ccc3[nH]nc(-c4cc5c(-c6ccsc6)cccc5[nH]4)c3c2)c1` [Compound 707, 2-Cyclohexyl-N-(5-(3-(4-(thiophen-3-yl)-1H-indol-2-yl)-1H-indazol-5-yl)pyridin-3-yl)acetamide], for which the EC50 in assay [1] is 570 nM; in the assay on IL-6, 1300 nM; in assay [2], more than 10000 nM; in the assay on SW480 colon cancer cells it was 2130 nM.
The corresponding values for `CC(C)(C)C(=O)Nc1cncc(-c2ccc3[nH]nc(-c4cc5c(-c6ccncc6)cccc5[nH]4)c3c2)c1` [Compound 120, N-(5-(3-(4-(Pyridin-4-yl)-1H-indol-2-yl)-1H-indazol-5-yl)pyridin-3-yl) pivalamide] are 600 nM, 445 nM, 218 nM and 1450 nM.
Turning to `CCCC(=O)Nc1cncc(-c2ccc3[nH]nc(-c4cc5c(-c6cc(F)cc(NCCN(C)C)c6)cccc5[nH]4)c3c2)c1` [Compound 465, N-(5-(3-(4-(3-((2-(Dimethylamino)ethyl)amino)-5-fluorophenyl)-1H-indol-2-yl)-1H-indazol-5-yl)pyridin-3-yl)butyramide], the half-maximal effective concentration (EC50) in assay [1] came out at 138 nM; with IL-6, 876 nM; in assay [2], 224 nM; in the assay with SW480 colon cancer cells it was 310 nM.
As for `Fc1ccccc1-c1cccc2[nH]c(-c3n[nH]c4ccc(-c5cncc(OC6CCNCC6)c5)cc34)cc12` [Compound 572, 3-(4-(2-Fluorophenyl)-1H-indol-2-yl)-5-(5-(piperidin-4-yloxy)pyridin-3-yl)-1H-indazole], the 50% effective concentration (EC50) in assay [1] was 1020 nM; in the assay on IL-6, 3500 nM; in assay [2] it was 2230 nM; in the assay with SW480 colon cancer cells, 1400 nM.
